ChEMBL document CHEMBL3112450, “Synthesis and in vitro antitumor evaluation of primary amine substituted quinazoline linked benzimidazole” (Bioorg Med Chem Lett, 2014)

Tests used:
Assay type in all cases: functional
MOLT-4 [1] = test: Cytotoxicity against human MOLT4 cells after 48 hrs by SRB assay; conditions: MOLT-4, 48 h
CCRF-CEM = test: Cytotoxicity against human CCRF-CEM cells after 48 hrs by SRB assay
MCF7 [2] = test: Cytotoxicity against human MCF7 cells assessed as cell growth at 10^-4 M after 48 hrs by SRB assay; conditions: MCF7, 48 h, read-out: Activity
SN12C [3] = test: Cytotoxicity against human SN12C cells assessed as cell growth at 10^-4 M after 48 hrs by SRB assay; conditions: read-out: Activity
SK-MEL-28 = test: Cytotoxicity against human SK-MEL-28 cells assessed as cell growth at 10^-7 M after 48 hrs by SRB assay; conditions: SK-MEL-28, 48 h, read-out: Activity
SF-295 [4] = test: Cytotoxicity against human SF295 cells assessed as cell growth at 10^-7 M after 48 hrs by SRB assay; conditions: SF-295, 48 h, read-out: Activity
NCI-H460 = test: Cytotoxicity against human NCI-H460 cells assessed as cell growth at 10^-7 M after 48 hrs by SRB assay; conditions: NCI-H460, 48 h, read-out: Activity
SR [5] = test: Cytotoxicity against human SR cells assessed as cell growth at 10^-7 M after 48 hrs by SRB assay; conditions: read-out: Activity
MDA-MB-468 [6] = test: Cytotoxicity against human MDA-MB-468 cells assessed as cell growth at 10^-8 M after 48 hrs by SRB assay; conditions: MDA-MB-468, 48 h, read-out: Activity
BT-549 = test: Cytotoxicity against human BT549 cells assessed as cell growth at 10^-8 M after 48 hrs by SRB assay; conditions: BT-549, 48 h, read-out: Activity
786-0 [7] = test: Cytotoxicity against human 786-0 cells assessed as cell growth at 10^-4 M after 48 hrs by SRB assay; conditions: 786-0, 48 h, read-out: Activity
OVCAR-8 [8] = test: Cytotoxicity against human OVCAR8 cells assessed as cell growth at 10^-4 M after 48 hrs by SRB assay; conditions: OVCAR-8, 48 h, read-out: Activity
UACC-62 = test: Cytotoxicity against human UACC62 cells assessed as cell growth at 10^-4 M after 48 hrs by SRB assay; conditions: UACC-62, 48 h, read-out: Activity
SF-295 [9] = test: Cytotoxicity against human SF295 cells assessed as cell growth at 10^-4 M after 48 hrs by SRB assay; conditions: SF-295, 48 h, read-out: Activity
COLO 205 = test: Cytotoxicity against human COLO205 cells assessed as cell growth at 10^-4 M after 48 hrs by SRB assay; conditions: COLO 205, 48 h, read-out: Activity
SR [10] = test: Cytotoxicity against human SR cells assessed as cell growth at 10^-4 M after 48 hrs by SRB assay; conditions: read-out: Activity
OVCAR-8 [11] = test: Cytotoxicity against human OVCAR8 cells assessed as cell growth at 10^-8 M after 48 hrs by SRB assay; conditions: OVCAR-8, 48 h, read-out: Activity
SK-MEL-2 [12] = test: Cytotoxicity against human SK-MEL-2 cells assessed as cell growth at 10^-8 M after 48 hrs by SRB assay; conditions: SK-MEL-2, 48 h, read-out: Activity
Malme-3M [13] = test: Cytotoxicity against human MALME-3M cells assessed as cell growth at 10^-8 M after 48 hrs by SRB assay; conditions: read-out: Activity
SF-295 [14] = test: Cytotoxicity against human SF295 cells assessed as cell growth at 10^-8 M after 48 hrs by SRB assay; conditions: SF-295, 48 h, read-out: Activity
NCI-H322M [15] = test: Cytotoxicity against human NCI-H322M cells assessed as cell growth at 10^-8 M after 48 hrs by SRB assay; conditions: read-out: Activity
NCI-H226 = test: Cytotoxicity against human NCI-H226 cells assessed as cell growth at 10^-8 M after 48 hrs by SRB assay; conditions: NCI-H226, 48 h, read-out: Activity
HOP-62 = test: Cytotoxicity against human HOP62 cells assessed as cell growth at 10^-8 M after 48 hrs by SRB assay; conditions: HOP-62, 48 h, read-out: Activity
MOLT-4 [16] = test: Cytotoxicity against human MOLT4 cells assessed as cell growth at 10^-8 M after 48 hrs by SRB assay; conditions: MOLT-4, 48 h, read-out: Activity
OVCAR-8 [17] = test: Cytotoxicity against human OVCAR8 cells assessed as growth inhibition at 10 uM after 48 hrs by SRB assay; conditions: OVCAR-8, 48 h, read-out: GI
T47D = test: Cytotoxicity against human T47D cells after 48 hrs by SRB assay
A498 = test: Cytotoxicity against human A498 cells after 48 hrs by SRB assay; conditions: A498, 48 h
SK-MEL-2 [18] = test: Cytotoxicity against human SK-MEL-2 cells after 48 hrs by SRB assay; conditions: SK-MEL-2, 48 h
LOX IMVI = test: Cytotoxicity against human LOXIMVI cells after 48 hrs by SRB assay
SF-268 [19] = test: Cytotoxicity against human SF268 cells after 48 hrs by SRB assay; conditions: SF-268, 48 h
MDA-MB-468 [20] = test: Cytotoxicity against human MDA-MB-468 cells assessed as cell growth at 10^-6 M after 48 hrs by SRB assay; conditions: MDA-MB-468, 48 h, read-out: Activity
786-0 [21] = test: Cytotoxicity against human 786-0 cells assessed as cell growth at 10^-6 M after 48 hrs by SRB assay; conditions: 786-0, 48 h, read-out: Activity
OVCAR-3 = test: Cytotoxicity against human OVCAR3 cells assessed as cell growth at 10^-6 M after 48 hrs by SRB assay; conditions: OVCAR-3, 48 h, read-out: Activity
Malme-3M [22] = test: Cytotoxicity against human MALME-3M cells assessed as cell growth at 10^-6 M after 48 hrs by SRB assay; conditions: read-out: Activity
SF-268 [23] = test: Cytotoxicity against human SF268 cells assessed as cell growth at 10^-6 M after 48 hrs by SRB assay; conditions: SF-268, 48 h, read-out: Activity
NCI-H322M [24] = test: Cytotoxicity against human NCI-H322M cells assessed as cell growth at 10^-6 M after 48 hrs by SRB assay; conditions: read-out: Activity
MDA-MB-231 = test: Cytotoxicity against human MDA-MB-231 cells assessed as cell growth at 10^-7 M after 48 hrs by SRB assay; conditions: MDA-MB-231, 48 h, read-out: Activity
MCF7 [25] = test: Cytotoxicity against human MCF7 cells assessed as cell growth at 10^-7 M after 48 hrs by SRB assay; conditions: MCF7, 48 h, read-out: Activity
SN12C [26] = test: Cytotoxicity against human SN12C cells assessed as cell growth at 10^-7 M after 48 hrs by SRB assay; conditions: read-out: Activity

SMILES: C=CCn1c(C)nc2ccc(Nc3nc(Nc4ccc(F)cc4)nc4ccccc34)cc21
- GI50 (MOLT-4 [1]): 1.77 µM
- LC50 (MOLT-4 [1]): > 100 µM
- TGI (MOLT-4 [1]): 6.27 µM
- GI50 (CCRF-CEM): 3.01 µM
- LC50 (CCRF-CEM): > 100 µM
- TGI (CCRF-CEM): 11.7 µM
- growth at 100 µM (MCF7 [2]): -37%
- growth at 100 µM (SN12C [3]): -49%
- growth at 0.1 µM (SK-MEL-28): 102%
- growth at 0.1 µM (SF-295 [4]): 92%
- growth at 0.1 µM (NCI-H460): 103%
- growth at 0.1 µM (SR [5]): 98%
- growth at 0.01 µM (MDA-MB-468 [6]): 78%
- growth at 0.01 µM (BT-549): 88%
- growth at 100 µM (786-0 [7]): -71%
- growth at 100 µM (OVCAR-8 [8]): -26%
- growth at 100 µM (UACC-62): -70%
- growth at 100 µM (SF-295 [9]): -87%
- growth at 100 µM (COLO 205): -28%
- growth at 100 µM (SR [10]): -22%
- growth at 0.01 µM (OVCAR-8 [11]): 98%
- growth at 0.01 µM (SK-MEL-2 [12]): 98%
- growth at 0.01 µM (Malme-3M [13]): 97%
- growth at 0.01 µM (SF-295 [14]): 84%
- growth at 0.01 µM (NCI-H322M [15]): 87%
- growth at 0.01 µM (NCI-H226): 92%
- growth at 0.01 µM (HOP-62): 93%
- growth at 0.01 µM (MOLT-4 [16]): 98%
- inhibition of growth at 10 µM (OVCAR-8 [17]): 50%
- GI50 (T47D): 1.7 µM
- LC50 (T47D): > 100 µM
- TGI (T47D): 4.23 µM
- GI50 (A498): 4.36 µM
- LC50 (A498): 69 µM
- TGI (A498): 24.1 µM
- GI50 (SK-MEL-2 [18]): 3.16 µM
- LC50 (SK-MEL-2 [18]): 53.3 µM
- TGI (SK-MEL-2 [18]): 11.4 µM
- GI50 (LOX IMVI): 4.36 µM
- LC50 (LOX IMVI): > 100 µM
- TGI (LOX IMVI): 23 µM
- GI50 (SF-268 [19]): 8.69 µM
- LC50 (50% lethal concentration) (SF-268 [19]): 82.3 µM
- TGI (SF-268 [19]): 27.8 µM
- growth at 1 µM (MDA-MB-468 [20]): 64%
- growth at 1 µM (786-0 [21]): 96%
- growth at 1 µM (OVCAR-3): 97%
- growth at 1 µM (Malme-3M [22]): 101%
- growth at 1 µM (SF-268 [23]): 94%
- growth at 1 µM (NCI-H322M [24]): 85%
- growth at 0.1 µM (MDA-MB-231): 98%
- growth at 0.1 µM (MCF7 [25]): 87%
- growth at 0.1 µM (SN12C [26]): 96%
